Assay results: the METLIN SMRT retention time set (Domingo-Almenara et al. 2019)

Assay: gradient 5% acetonitrile 3 min, to 50% in 2 min, to 85% in 15 min, held 3 min, 100 µL/min
Conditions: column: Zorbax Extend-C18 2.1 x 50 mm; eluents: water / acetonitrile, 0.1% formic acid
Summary of the method: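 A Zorbax Extend-C18 column (2.1 × 50 mm, 1.8 μm) run at 100 μL/min with water and acetonitrile, both containing 0.1% formic acid, separated mixtures of ~100 pure standards. The HPLC was coupled to a quadrupole time-of-flight mass spectrometer operated in positive and negative ionization mode, with dead and dwell volumes of 40 μL and 900 μL. Each retention time was taken from a computationally picked adduct peak that was then manually inspected.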

SMILES | RP-LC retention time [s]
O=C(c1ccc2c(c1)OCO2)N1CCCn2nc(-c3ccncc3)cc2C1 | 584
CCOc1ccccc1NC(=O)Cn1c(=O)n(-c2ccccc2)c(=O)c2c1cc(C)n2C | 909
Cc1ccc(N2CCN(c3nccn4c(=O)n(CC(=O)Nc5ccc(C)c(C)c5)nc34)CC2)cc1 | 1000
CCCn1cc(CCNC(=O)c2ccc(Cl)s2)c2cccnc21 | 833
Cc1ccc(-c2nc3ccc(Cl)cn3c2Nc2ccccc2C)cc1 | 904
O=C(NC1CCCC1)c1cn(Cc2ccccc2)cc2c(=O)n(-c3ccccc3)nc1-2 | 1060
Cc1cccc(NC(=O)C2CCN(S(C)(=O)=O)c3cc(Cl)ccc3O2)c1C (stereo not drawn) | 1090
Cc1nc(-c2ccccc2)cc2nn(CC(=O)Nc3ccc(F)cc3Cl)c(=O)n12 | 967
Cn1c(C2CCN(C(=O)c3ccc(Cl)cc3)C2)nc2ccncc21 (stereo not drawn) | 540
COc1ccc(CNC(=O)N2C[C@@H]3C[C@H]2C[C@@H]3NS(=O)(=O)c2ccccc2)cc1 | 764
Cc1cnc(C2CN(C(=O)C3(c4ccccc4)CC3)C2)n1Cc1cccnc1 | 585
Cc1ccc2[nH]cc(CCNC(=O)c3ccc(Cl)cc3Cl)c2c1 | 957
CCN(CC)C(=O)C1CCC(=O)N(c2ccc(OC)cc2)C1c1ccc(OC)c(OC)c1 (stereo not drawn) | 676
CCOC(=O)CNC(=O)N1CCc2c(c(C(=O)N3CCCC3)nn2C)C1 | 637
COc1ccc(C)cc1NC(=O)N1c2ccccc2CC1c1nc(C2CC2)no1 (stereo not drawn) | 1150
CC(C)CCN1CCC(N2CCN(C(=O)c3cccs3)CC2)C1=O (stereo not drawn) | 567
Cc1ccc(C(=O)Nc2ccc(N3CCN(Cc4ccccc4)C3=O)nc2)s1 | 847
CC(C)S(=O)(=O)N1CC(Oc2ccccc2-c2nc(C3CC3)no2)C1 | 984
COc1cccc(CNC(=O)C2CCCN(c3ccc(-c4nc(C)no4)cn3)C2)c1OC (stereo not drawn) | 753
O=C(NCc1ccc(-c2noc(Cc3ccccc3F)n2)s1)C1CC1 | 868
COC(=O)c1ccc(CSc2ncnc3c2cnn3-c2ccc(C)cc2C)o1 | 1070
COC(=O)c1c(NCc2ccc(C)o2)c2cccc(Cl)c2[nH]c1=O | 766

SMILES | RP-LC retention time [s]
CCOC(=O)c1cnn(-c2ccc(Cl)nn2)c1C | 871
CC(C(=O)NCCc1c[nH]c2ccc(Cl)cc12)n1c2ccccc2c2cnn(C)c(=O)c21 (stereo not drawn) | 930
N#Cc1cccc(-c2cn3c(n2)N(C(=O)c2ccncc2)CCC3)c1 | 611
CCC1CN2C=NC(N3CCN(C(=O)Nc4ccc(OC)cc4C)CC3)=CC2=N1 (stereo not drawn) | 612
COc1ccc(-n2ccn3cc(-c4ccc5c(c4)OCO5)nc3c2=O)cc1OC | 733
N#Cc1ccc(-c2csc(NC(=O)c3ccc(Cl)cc3)n2)cc1 | 1140
Cc1noc(CNC(=O)C2CCN(C(=O)Cn3c(=O)oc4ccccc43)CC2)n1 | 608
Cc1cnc(C2CC2)n1CCNS(=O)(=O)Cc1ccccc1F | 619
CCSc1nnc(NC(=O)CNC(=O)c2ccc(=O)[nH]c2)s1 | 571
NC(=O)CNC(=O)c1sc2ncccc2c1-n1cccc1 | 622
OCCNCCNCc1ccc(-c2ccccc2F)o1 | 563
Cc1cc2c(c(=O)n(-c3ccc(F)cc3)c(=O)n2CC(=O)Nc2ccccc2Cl)n1C | 858
COc1ccc(OC)c(NC(=O)C2CCN(S(=O)(=O)c3cc(-c4noc(C)n4)cs3)CC2)c1 | 931
CCNC(=O)C1CCCN(c2nc3ncn(CC(=O)Nc4ccc(CC)cc4)c(=O)c3s2)C1 (stereo not drawn) | 661
Cc1cc(F)ccc1NC(=O)c1cnn2c1CCCC2 | 720
Cc1cc(N2CCN(C(=O)c3ccc(F)cc3Cl)CC2)nc(N2CCOCC2)n1 | 637
CC(=O)N(C1CC1)C1CCOC2(CCN(C(=O)c3sc(C)nc3C)CC2)C1 (stereo not drawn) | 643
CN(C)C[C@@H]1CN(S(C)(=O)=O)C[C@H]1NC(=O)C1(c2ccccc2)CCCC1 | 663
O=C(NCc1cccnc1)c1cn2ccnc(-c3ccccc3)c2n1 | 599
Cc1nc(-c2ccccc2)cc2nn(CC(=O)Nc3ccccc3Cl)c(=O)n12 | 966
COCCn1c(SCC(=O)Nc2nc3ccccc3s2)nc2c(c1=O)SC(C)C2 (stereo not drawn) | 806
CCC1Oc2ccc(S(=O)(=O)N3CCC(C(=O)Nc4cc(C)ccc4C)CC3)cc2NC1=O (stereo not drawn) | 837

SMILES | RP-LC retention time [s]
Cc1ccsc1C(=O)N1CCC(n2cnnc2-c2ccccc2)C1 (stereo not drawn) | 662
CCc1ccc(S(=O)(=O)N2CCC(C)(C(=O)NCc3ccccc3C)CC2)cc1 | 1020
COc1ccc(C2C(C(=O)N3CCCCCC3)c3cc(OC)c(OC)cc3C(=O)N2C)cc1OC (stereo not drawn) | 748
CC1CCN(S(=O)(=O)c2ccc3nc(N4CCN(c5ccccc5F)CC4)ccc3c2)CC1 | 1260
O=C(Nc1ccc2nc3n(c(=O)c2c1)CCCC3)Nc1ccccc1Br | 735
Cc1ccc(-c2nc(C)cc(OCC(=O)NCc3ccc4c(c3)OCO4)n2)cc1 | 919
O=C(CCc1ccc2[nH]ccc2c1)N1CCN(c2ccccc2)CC1 | 856
CCCCN(C)C(=O)Cn1cncc(-c2nc(-c3ccccc3)cs2)c1=O | 946
Cn1ncc2c(N3CCSCC3)nc(C(=O)NCCc3cccnc3)nc21 | 575
CCC(=O)N(C1CCOCC1)C1CCN(S(=O)(=O)c2cccnc2)CC1 | 807
CCN(CC)C(=O)N1CCO[C@@H](COc2ccccn2)[C@@H]1c1ccccc1 | 898
Cc1nc(-c2cn(C)c3ncccc23)sc1C(=O)Nc1ccccc1F | 922
CCCS(=O)(=O)NCc1ccc2c(c1)CCN2C(=O)CC(C)C | 862
Cc1nn(-c2nc(-c3ccc(F)cc3)cs2)c(C)c1CC(=O)N1CCCCCC1 | 1210
CC1CCCN(c2ccc(-c3noc(CN4CCC(C(N)=O)CC4)n3)cn2)C1 (stereo not drawn) | 589
O=C1CC(c2noc(-c3ccccc3Cl)n2)CN1c1ccc(F)cc1 (stereo not drawn) | 964
Cc1ccc(CNC(=O)N2CCN(Cc3c(C)noc3C)CC2)cc1 | 611
CCC(C)NC(=O)c1ccc(-c2nnc3ccc(NC(=O)C4CC4)cn23)cc1 (stereo not drawn) | 718
CC(C(=O)NCCc1c[nH]c2ccc(Cl)cc12)C1CCN(S(=O)(=O)c2cccs2)CC1 (stereo not drawn) | 921
COc1cccc(C2CC(c3ccc(C)c(C)c3)=NC3(CCN(C(C)=O)CC3)N2)c1O (stereo not drawn) | 694
CCOC(=O)N1CCN(C2CC(=O)N(CCc3ccc(OC)c(OC)c3)C2=O)CC1 (stereo not drawn) | 659
CC(C)OC(=O)CCC/C=C\C[C@@H]1[C@@H](CC[C@@H](O)CCc2ccccc2)[C@H](O)C[C@@H]1O | 1020

SMILES | RP-LC retention time [s]
CCc1ccccc1NC(=O)c1sc(-c2cn(C)c3ncccc23)nc1C | 971
CN1CCCn2cc(S(=O)(=O)NCc3ccccc3Cl)cc2C1=O | 704
CCN1C(=O)C2(CCN(S(=O)(=O)c3cc(C)ccc3C)CC2)c2ccccc21 | 1110
Cc1cccnc1NC(=O)Nc1c[nH]c2ccccc12 | 826
CCn1c(=O)n(CC)c2cc(N3CCCC3)c(NC(=O)NCc3cccc(F)c3)cc21 | 654
O=C(NC1CCCCC1)C1CCN(S(=O)(=O)c2ccc(-c3noc(C4CC4)n3)cc2)CC1 | 928
Cc1noc(C2CN(C(=O)Nc3ccc(C)c(F)c3)CC23CCOCC3)n1 (stereo not drawn) | 776
COc1cc(NC(=O)NCCc2cn(C)c3ncccc23)cc(OC)c1 | 657
CC(C)N1CCN(c2cc(-c3nc(-c4cccc(F)c4)no3)c3ccccc3n2)CC1 | 890
CC(C)n1c(=O)c2ccccc2n(Cc2nc(-c3ccccc3Cl)no2)c1=O | 1130
O=C(NCc1ccccc1Cl)C1CCN(c2cncnc2N2CCCC2)CC1 | 677
O=S(=O)(Cc1ccccc1Cl)NCCN1CCN(c2ccc(F)cc2)CC1 | 591
Cc1ccc(S(=O)(=O)N2c3ccccc3NC3=C(C(=O)CCC3)C2c2ccco2)cc1 (stereo not drawn) | 837
CCOC(=O)c1ccc(OC(=O)CCCCCN=C(N)N)cc1 | 750
Cc1cnc(C(=O)NC2C[C@H]3CC[C@@H](C2)N3S(=O)(=O)c2c(C)noc2C)cn1 (stereo partly drawn) | 726
CS(=O)(=O)c1ccc(NC(=O)C2CN(C(=O)c3ccc(F)c(F)c3)C2)cc1 | 661
COc1ccc(C2(C(=O)N3CC[C@@H]4CN(Cc5ccccc5)[C@@H]4C3)CC2)cc1 | 652
CCOC(=O)C1=C(CN2CCN(C3CCCCC3)CC2)NC(=O)NC1c1ccc(OC)cc1 (stereo not drawn) | 656
COc1ncccc1C(=O)Nc1onc2c1CSC2 | 642
Cc1nc(-c2cn(C)c3ncccc23)sc1C(=O)NCc1ccc(C(F)(F)F)cc1 | 981
Cc1cc(C)c2c(n1)sc1c(=O)n(CC(=O)Nc3ccc(F)c(F)c3)c(C)nc12 | 910
CN(C)c1ccc2c(c1)CN(C(=O)c1ccsc1)CCO2 | 586
